Article PMC12811501, “A plant-derived antimicrobial peptide with multiple mechanisms of action exhibiting antibacterial and antibiofilm activities comparable to or superior to polymyxin B” (Current Research in Microbial Sciences, 2025)
Residues, ends and D or L forms follow the SMILES beside them. No end group written: not given here.

Assays:
[1] = Peptide-lipid overlay assay; type: binding; details: 2 μM peptide, 1 h
Protocol: Membrane lipid strips (Echelon Biosciences, P-6002) were incubated for 1 h in blocking solution (3 % BSA in TBS-Tween 0.1 %) with gentle agitation followed by four 8-min washes in TBS-Tween. Then, strips were incubated with 2 μM of NCR169C17–38 in blocking solution for 1 h. Not bound peptide was washed off by four 8-min washes in TBS-Tween. The bound StrepII-tagged peptide was then detected on the strips using the same procedure described for the dot blot, except that chemiluminescence was visualized with an iBright™ FL1500 Imaging System (Invitrogen).
As shown above, NCR169C17–38 causes rapid damage to bacterial membranes. Since membrane structure is largely determined by its lipid composition, we next investigated the ability of NCR169C17–38-StrepII to bind membrane lipids in vitro using a peptide-lipid overlay assay (Supplementary Fig. 3.A). NCR169C17–38-StrepII bound to several anionic lipids, including phosphoinositides, phosphatidic acid, phosphatidylserine, and cardiolipin - a major constituent of bacterial membranes.

[2] = 25, 12.5, 6.3, 3.1 µM in PPB, overnight at room temperature or 80 °C for 20 min; StrepII detection
Protocol: For heat stability test serial dilutions of the NCR169C17–38-StrepII peptide were prepared in PPB at concentrations of 25, 12.5, 6.3, 3.1 µM, following the same protocol used in the antimicrobial assay. One set of samples was incubated overnight at 37 °C with shaking, another set was subjected to heat stress at 80 °C for 20 min, while one set was freshly prepared. Dot-blot analysis was performed by spotting 5 µl of each peptide solution onto a 0.22 µm nitrocellulose membrane (Bio-Rad). Detection of the StrepII-tagged peptide was carried out using the Precision Protein StrepTactin-HRP conjugate (Bio-Rad), following the manufacturer’s recommended protocol. Signal development was achieved using the Clarity Western ECL Substrate (Bio-Rad), with the membrane incubated for 5 min at room temperature, followed by exposure to Fuji Medical X-ray film for visualization.
Peptide dilutions (25, 12.5, 6.3, and 3.1 µM) in PPB were either incubated overnight at room temperature (RT) or heated at 80 °C for 20 min.

[3] = system: E. coli; experiment: Antimicrobial test after heat stress or storage of the peptide; type: cell-based, Escherichia coli; details: then tested against E. coli, 3.1 µM = lowest dilution tested
Protocol: (B) NCR169C17-38-StrepII remains active against E. coli even at 3.1 µM after 20 minutes of treatment at 80 °C or incubation at room temperature for 24 hrs. Bacterial viability was assessed by plating 5 µL aliquots after treatment on LB agar. Only non-treated control cells could grow.

[4] = type: physicochemical; details: pH 7.4
[5] = system: Enterococcus faecalis (ATCC 29212); experiment: Minimal bactericidal concentration (MBC) assay; type: cell-based
Source text: (§1) The Gram-positive strains Enterococcus faecalis (ATCC 29212), Staphylococcus aureus (HNCMO112011), and Listeria monocytogenes (ATCC 19111), and the Gram-negative strains Pseudomonas aeruginosa (ATCC 27853), Escherichia coli (ATCC 8739), Salmonella enterica (ATCC 13076), Klebsiella pneumoniae (NCTC 13440), and Acinetobacter baumannii (ATCC 17978) were obtained from ATCC (United States) and NCTC (National Collection of Type Cultures – England).
(§2) Minimal bactericidal concentrations (MBC) of peptides and reference antibiotics were determined in 20 mM potassium phosphate buffer (PPB, pH 7.4) and Mueller–Hinton broth (MHB) as described by ([Jenei et al., 2020]). Briefly, bacterial cultures were grown to mid-log phase, washed, adjusted to OD₆₀₀ = 0.1 (∼10⁷ CFU/mL), added 10 μl of it into 100 μl mixture and incubated in 96-well plates with 2-fold serial dilutions of peptides or antibiotics. After incubation at 37 °C with shaking, bacterial viability was assessed by plating 5 μL aliquots on LB agar. MBC was defined as the lowest concentration yielding no colony growth. Experiments were done at least in three biological replicates.
(§3) NCR169, its oxidized form (NCR169ox), and its variant in which the four cysteines were replaced with serines (NCR169-C9,15,28,33/S) (Table 1.A) were chemically synthesized with C-terminal amidation. These peptides were tested for antimicrobial activity against a panel of ESKAPE pathogens - Enterococcus faecalis, Staphylococcus aureus, Klebsiella pneumoniae, Acinetobacter baumannii, Pseudomonas aeruginosa, E. coli - as well as Listeria monocytogenes and Salmonella enterica. Peptides were applied to 10^6 log-phase bacterial cultures in a two-fold dilution series (25 - 0.1 µM) in potassium phosphate buffer (PPB) at pH 7.4. After three hours of incubation, 5 µl of each treatment was plated on LB agar and incubated overnight at 37 °C to assess bacterial survival. Minimal bactericidal concentrations (MBCs), defined as the lowest concentration eliminating bacterial growth, are presented in Table 1B.

[6] = system: Acinetobacter baumannii (ATCC 17978); type: cell-based; details: short derivatives; 20 mM PPB at pH 7.4
Source text: as §1, §2, §3

[7] = system: Staphylococcus aureus (HNCMO112011); type: cell-based; details: for MBC S. a.: short derivatives, 20 mM PPB at pH 7.4
Source text: as §1, §2, §3

[8] = system: Pseudomonas aeruginosa (ATCC 27853); experiment: Minimal bactericidal concentration (MBC) assay; type: cell-based; details: short derivatives; 20 mM PPB at pH 7.4
Source text: as §1, §2, §3

[9] = system: Klebsiella pneumoniae (NCTC 13440); experiment: Minimal bactericidal concentration (MBC) assay; type: cell-based; details: short derivatives; 20 mM PPB at pH 7.4
Source text: as §1, §2, §3

[10] = system: Listeria monocytogenes (ATCC 19111); experiment: Minimal bactericidal concentration (MBC) assay; type: cell-based; details: short derivatives; 20 mM PPB at pH 7.4
Source text: as §1, §2, §3

[11] = system: Salmonella enterica (ATCC 13076); experiment: Minimal bactericidal concentration (MBC) assay; type: cell-based; details: short derivatives; 20 mM PPB at pH 7.4
Source text: as §1, §2, §3

[12] = system: Escherichia coli (ATCC 8739); type: cell-based; details: ATCC 8739, 3 h
Source text: as §1
as §2, with “Experiments were done at least in three biological replicates.” left out
Three biological replicates were treated at OD600 = 0.2 with a final concentration of 1.6 µM NCR169C17–38 peptide for 20 min, while the control samples were treated with the same amount of water for 20 min. […] Quality and quantity was detected using 2200 TapeStation (Agilent) and Qubit RNA BR Assay […]

[13] = short derivatives, 20 mM PPB at pH 7.4

Molecule | MBC S. a. [7] | MBC P. a. [8] | MBC K. p. [9] | MBC E. f. [5, 13] | MBC L. m. [10] | MBC S. e. [11] | further results
CC[C@H](C)[C@H](NC(=O)[C@H](CCCCN)NC(=O)[C@H](Cc1ccccc1)NC(=O)[C@H](CC(C)C)NC(=O)[C@@H]1CCCN1C(=O)[C@H](CCCCN)NC(=O)[C@H](CCCCN)NC(=O)[C@H](CO)NC(=O)[C@@H](N)CCCCN)C(=O)N[C@@H](Cc1c[nH]c2ccccc12)C(=O)N[C@@H](CCCCN)C(=O)N[C@@H](CS)C(=O)N[C@H](C(=O)N[C@@H](CCC(=O)O)C(=O)N[C@@H](CC(N)=O)C(=O)N[C@H](C(=O)N[C@@H](CS)C(=O)N[C@H](C(=O)N[C@@H](CC(C)C)C(=O)N[C@@H](Cc1c[nH]c2ccccc12)C(=O)N[C@@H](Cc1ccc(O)cc1)C(=O)N[C@@H](CCCCN)C(=O)N[C@@H](Cc1c[nH]c2ccccc12)C(=O)N[C@@H](CO)C(=O)N[C@@H](Cc1c[nH]cn1)C(=O)N1CCC[C@H]1C(=O)N[C@@H](CCC(N)=O)C(=O)N[C@@H](Cc1ccccc1)C(=O)N[C@@H](CCC(=O)O)C(=O)N[C@@H](CCCCN)C(N)=O)C(C)C)C(C)C)C(C)C [NCR169C17–38-StrepII] (H-KSKKPLFKIWKCVENVCVLWYKWSHPQFEK-NH2; N-terminus assumed) | – | – | – | – | – | – | binding to phosphatidylglycerol (PG) on lipid strip [1]: did not bind; binding to anionic lipids on lipid strip ([1]; phosphoinositides, phosphatidic acid, phosphatidylserine, cardiolipin): bound; peptide stability by dot blot [2]: confirmed its stability; lowest concentration still bactericidal after heat stress ([3]; peptide in PPB heated 20 minutes at 80 °C): ≤ 3.1 µM; lowest concentration still bactericidal after storage ([3]; peptide in PPB incubated at room temperature for 24 hrs (overnight)): ≤ 3.1 µM
EDIGHIKYCGIVDDCYKSKKPLFKIWKCVENVCVLWYK (disulfide) (disulfide (positions not given here); also: disulfide pairing not given here) [NCR169ox, oxidized form of NCR169] | – | – | – | – | – | – | solubility / visible turbidity upon peptide addition [4]: no visible turbidity; MBC E. f. ([5]; PPB pH 5.8, 3 h treatment, plated on LB agar): - (lack of bactericidal activity up to 25 µM); MBC E. f. ([5]; PPB pH 7.4, 3 h treatment, 10^6 log-phase bacteria, two-fold dilutions 25-0.1 µM, plated on LB agar, * = best MBC value measured, more than two fold dilution differences in replicates): - (lack of bactericidal activity up to 25 µM)
KCVENVCVLWYK [NCR169_27–38, shorter C-terminal fragment of NCR169C17–38] | - (lack of bactericidal activity up to 25 µM) | - (lack of bactericidal activity up to 25 µM) | - (lack of bactericidal activity up to 25 µM) | - (lack of bactericidal activity up to 25 µM) | - (lack of bactericidal activity up to 25 µM) | - (lack of bactericidal activity up to 25 µM) | MBC A. b. [6]: - (lack of bactericidal activity up to 25 µM)
PLFKIWKCVENVCVLWYK [NCR169_21–38, shorter C-terminal fragment of NCR169C17–38] | - (lack of bactericidal activity up to 25 µM) | - (lack of bactericidal activity up to 25 µM) | - (lack of bactericidal activity up to 25 µM) | - (lack of bactericidal activity up to 25 µM) | - (lack of bactericidal activity up to 25 µM) | - (lack of bactericidal activity up to 25 µM) | –
YKSKKPLFKIWK-NH2 [NCR169_16–27] | – | – | – | – | – | – | MBC Ec [12]: 6.3 µM; MBC Sa ([7]; HNCMO112011, 3 h): 25 µM
